Values after ≈ are worked out from the molar mass of the structure shown. Where two headings read alike, the source gives them in different places.
What was measured:
[1] = Onset temperature of desolvation in TG test (thermogravimetric analysis); assay type: physicochemical; details: TGA, heating rate 10° C./min, 25° C. to 250° C., nitrogen
[2] = prior-art hydrates, cited from earlier work
[3] = Crystal size and size distribution; assay type: physicochemical
Experimental: (§1) The 1,2-propanediol and DMSO solvates of etoricoxib obtained in the present disclosure are rod-like and bulk crystals, respectively, as shown in FIG. 10 and FIG. 11. The etoricoxib crystal form V in the prior art has a volume-average size of 16 μm and a repose angle of 44°; and the etoricoxib hemihydrate has a volume-average size of 19 μm and a repose angle of 48°. […] Therefore, the 1,2-propanediol and DMSO solvates of etoricoxib obtained in the present disclosure are perfect crystals with smooth surfaces, which are not easy to agglomerate and have prominent flowability.

[4] = Repose angle (particle flowability); assay type: physicochemical
Experimental: as §1

[5] = Thermal and moisture stability on storage at room/ambient temperature; assay type: physicochemical; details: for moisture stability (in words): ambient temperature, transformation into a hydrate; for thermal stability (in words): stored at room temperature
Experimental: The 1,2-propanediol and DMSO solvates of etoricoxib obtained in the present disclosure have a relatively high desolvation temperature. The 1,2-propanediol and the DMSO have boiling points of […] and 189° C., respectively. […] Moreover, the host-guest intermolecular interaction energies in the crystal structure of etoricoxib 1,2-propanediol and DMSO solvates are −37.22 kJ/mol and −43.37 kJ/mol respectively, which are much higher than that (−30.53 kJ/mol) in hemihydrate crystal structure. It is difficult for water molecules to enter a unit cell of the 1,2-propanediol and DMSO solvates to replace the 1,2-propanediol and DMSO molecules at an ambient temperature. […] As a result, the 1,2-propanediol and DMSO solvates of etoricoxib obtained in the present disclosure both have prominent thermal stability and moisture stability.

[6] = Solubility in aqueous solution; assay type: physicochemical; details: 25° C. aqueous solution
Excerpt: Therefore, the 1,2-propanediol and DMSO solvates of etoricoxib obtained in the present disclosure both effectively improve the solubility of etoricoxib in an aqueous solution.

[7] = listed as etoricoxib hemihydrate
[8] = listed as DMSO solvate of etoricoxib
[9] = listed as 1,2-propanediol solvate of etoricoxib

With `Cc1ccc(-c2ncc(Cl)cc2-c2ccc(S(C)(=O)=O)cc2)cn1` [Formamide solvate] as the compound, how does the “Onset temperature of desolvation in TG test” value (shortened to “Onset temperature … in TG test”) ([1]; listed as formamide solvate of etoricoxib) read?
Its value is 90 °C.

For `Cc1ccc(-c2ncc(Cl)cc2-c2ccc(S(C)(=O)=O)cc2)cn1` [NMP solvate], which “Onset temperature … in TG test” value [1] is on record?
The value was 79 ± 1 °C.

And the “Onset temperature … in TG test” value ([1]; listed as NMP solvate of etoricoxib)?
Its value is 79 °C.

Which “onset temperature of dehydration” value ([2]; listed as hemihydrate) does the source give for `Cc1ccc(-c2ncc(Cl)cc2-c2ccc(S(C)(=O)=O)cc2)cn1` [Hemihydrate, 5-chloro-6′-methyl-3-[4-(methylsulfonyl)phenyl]-2,3′-bipyridine] here?
Its value is “lower than 56 °C”.

What about the “variation coefficient of size distribution” value (from here on “variation coefficient”) [3] of the same compound?
The value was 53.6%.

And the volume-average size [3, 7]?
Its volume-average size is 19 μm.

And the repose angle [4, 7]?
The repose angle was 48 °.

Which results are given for `Cc1ccc(-c2ncc(Cl)cc2-c2ccc(S(C)(=O)=O)cc2)cn1` [Methanol solvate]?
Onset temperature of desolvation in TG test [1]: 27 ± 1 °C; Onset temperature of desolvation in TG test ([1]; listed as methanol solvate of etoricoxib): 27 °C

Which “Onset temperature … in TG test” value [1] does the source give for `Cc1ccc(-c2ncc(Cl)cc2-c2ccc(S(C)(=O)=O)cc2)cn1` [EG solvate] here?
The value was 96 ± 1 °C.

And the “Onset temperature … in TG test” value ([1]; listed as EG solvate of etoricoxib)?
The value was 96 °C.

For `Cc1ccc(-c2ncc(Cl)cc2-c2ccc(S(C)(=O)=O)cc2)cn1` [DMSO solvate], which volume-average size [3] is on record?
Its volume-average size is 120 μm.

What about the “variation coefficient” value [3, 8] of the same compound?
The value was 19.7%.

And the “Onset temperature … in TG test” value [1]?
Its value is 66 ± 1 °C.

And the “Onset temperature … in TG test” value [1, 8]?
Its value is 66 °C.

And the “moisture stability (in words)” value [5]?
The value was “prominent moisture stability”.

What about the “thermal stability (in words)” value [5] of the same compound?
Its value is “excellent thermal stability”.

And the “solubility in aqueous solution” value [6, 8]?
The value was 1465 µg/mL.

For `Cc1ccc(-c2ncc(Cl)cc2-c2ccc(S(C)(=O)=O)cc2)cn1` [1,2-propanediol solvate], which primary crystal size [3] is on record?
Its primary crystal size is 100 μm.

What about the “variation coefficient” value [3, 9] of the same compound?
The value was 23.6%.

What about the “Onset temperature … in TG test” value [1] of the same compound?
Its value is 94 ± 1 °C.

What about the “Onset temperature … in TG test” value [1, 9] of the same compound?
Its value is 94 °C.

What about the “moisture stability (in words)” value [5] of the same compound?
Its value is “prominent moisture stability”.

And the “thermal stability (in words)” value [5]?
The value was “excellent thermal stability”.

And the “solubility in aqueous solution” value [6, 9]?
The value was 527 µg/mL.

Which results are given for `Cc1ccc(-c2ncc(Cl)cc2-c2ccc(S(C)(=O)=O)cc2)cn1` [etoricoxib crystal form V, 5-chloro-6′-methyl-3-[4-(methylsulfonyl)phenyl]-2,3′-bipyridine, reference compound]?
variation coefficient of size distribution [3]: 57.2%; volume-average size [3]: 16 μm; solubility in aqueous solution [6]: 307.9 µg/mL (≈ 858 µM); repose angle [4]: 44 °

With `Cc1ccc(-c2ncc(Cl)cc2-c2ccc(S(C)(=O)=O)cc2)cn1` [Sesquihydrate, 5-chloro-6′-methyl-3-[4-(methylsulfonyl)phenyl]-2,3′-bipyridine] as the compound, how does the “onset temperature of dehydration” value ([2]; listed as sesquihydrate) read?
Its value is “lower than 23 °C”.

From patent publication US11655231B2, “Etoricoxib solvates and preparation method thereof” (Tianjin University, priority 2020, dated 2023)
